Key:
[1] = test system: HBV precore mutant (G1896A); assay: Antiviral testing: HBV replicative intermediates by Southern blot in Huh7 cells transfected with HBV plasmid (precore mutant); type: cell-based; conditions: Hepatitis B virus, Huh-7
Source text: (§1) The plasmid containing 1.3×HBV genome in the vector pBlueBac4.5 was used as the infectious HBV clone. This clone already had the precore mutation at G1896A. The point mutation were created by site directed mutagenesis using the commercial kits according to the manufacturers specifications (QuikChange, Stratagene). A HBV recombinant encoding the reverse transcriptase mutations rtS85A was created. The nucleotide sequence of the plasmid and the point mutations generated by site directed mutagenesis were confirmed by sequencing using the ABI Prism Big Dye Terminator Cycle Sequencing Ready Reaction Kit according to the manufacturer's specifications (Perkin Elmer, Cetus Norwalk, Conn.).
(§2) Huh7 cells were seeded at approximately 20-40% confluency and then were grown for 16-24 hours before transfection. Plasmid DNA containing HBV encoding specific mutations was transfected using Fugene according to the manufacturers protocols.
ADV and LMV were resuspended in sterile water, aliquoted, and frozen at −20° C. to avoid repeated freezing and thawing of the drug. […]
HBV core particles were isolated from the cytoplasmic fraction of Huh7 cells lysis buffer which includes 0.5% w/v NP-40. […] After southern blot analysis a BioRad Phosphoimager and the Quantity One Analysis software (BioRad, Hecules Calif.) was used to analyze suitable exposures of Southern blots. […]

[2] = test system: recombinant HBV encoding the mutant rtS85A; assay: Antiviral testing: HBV replicative intermediates by Southern blot in Huh7 cells transfected with HBV plasmid encoding rtS85A; type: cell-based, hepatitis B virus; conditions: for IC50: Hepatitis B virus, Huh-7
Source text: as §1, §2
ADV and LMV were resuspended in sterile water, aliquoted, and frozen at −20° C. to avoid repeated freezing and thawing of the drug. Medium containing ADV or LMV were prepared daily as needed. In experiments in which ADV or LMV treatment was initiated […] transfection, Huh7 cells were exposed to the indicated concentration of ADV or LMV immediately after transfection with the HBV plasmid.
HBV core particles were isolated from the cytoplasmic fraction of Huh7 cells lysis buffer which includes 0.5% w/v NP-40. Cytoplasmic extracts were treated with DNAse, adjusted to 10 mmol/l […] and unprotected DNA was removed by an incubation to 500 µg/ml Proteinase K for 1.5 hours at 37° C. HBV DNA in the samples were then extracted using commercial DNA extraction kits such as Qiagen (DNA extraction) or in-house methods using sequential phenol and chloroform extractions, and the nucleic acids were recovered by ethanol precipitation. […] After southern blot analysis a BioRad Phosphoimager and the Quantity One Analysis software (BioRad, Hecules Calif.) was used to analyze suitable exposures of Southern blots. […]

Row | Compound | IC50 [1] [nM] | IC50 [2] [nM] | sensitivity of recombinant HBV to drug ([2]; recombinant HBV encoding the mutant rtS85A)
1 | Nc1ccn([C@@H]2CS[C@H](CO)O2)c(=O)n1 [LMV, (−)-β-2′-deoxy-3′-thiacytidine] | 5 | 10 | 
2 | Nc1ncnc2c1ncn2CCOCP(=O)(O)O [ADV, adefovir] | 430 | 5000 to 10000 | reduced sensitivity
